# Laboratory results from paper PMC7876106 (Scientific Reports, 2021).
# Tests used:
# G4 TeloDNA = assay: FP assay, compound binding to 5′ fluorescein-labeled TeloDNA
# Description: (§1) All the nucleic acids, peptides and chemicals were dissolved in buffer containing 20 mM HEPES pH7.5, 150 mM salt (KCl, NaCl, LiCl) at the stock concentration of 1 mM. For peptide and nucleic acid interactions, 25μL of each nucleic acids with a sequential twofold dilutions starting from 50 μM was added into each well of 96-well plate followed by adding 25μL of 10 nM FITC labeled TRF2 peptide. For compounds and nucleic acid interactions, 20μL of each compounds with a sequential twofold dilutions starting from 50 μM were added into each well of 96-well plate followed by adding 5μL of 20 ng/mL tRNA and 25μL of 10 nM FAM labeled nucleic acids. For inhibition assay, 5μL FITC labeled TRF2 GAR peptide (10 nM final concentration) and 10 μL oligos (5 μM final concentration) were mixed, followed by adding 5μL of each compound with a sequential twofold dilutions starting from 50 μM into each well of 384-well plate. All components were mixed thoroughly, and the plate was incubated at room temperature for 1 h before placing in an Envision Plate Reader for reading at 495/520 nm. All data curves were fitted using Prism 8.0.
# [1] = system: TeloDNA (5'-fluorescein) (DNA, G4) TTAGGGTTAGGGTTAGGGTTAGGG; assay: fluorescence polarization; conditions: 20 mM HEPES pH 7.5, room temperature; for binding: 150 mM salt (KCl, NaCl or LiCl; which not stated), tRNA competitor, dilutions from 50 μM compound
# [2] = system: TERRA (5'-fluorescein) (RNA, G4) UUAGGGUUAGGGUUAGGGUUAGGG; assay: fluorescence polarization; conditions: 20 mM HEPES pH 7.5, room temperature; for binding: 150 mM salt (KCl, NaCl or LiCl; which not stated), tRNA competitor, dilutions from 50 μM compound
# TERRA [3] = assay: FP assay, compound binding to 5′ fluorescein-labeled TERRA
# Description: as §1
# TERRA [4] = assay: FP assay, FITC labeled TRF2 peptide with TERRA; format: binding; conditions: 10 nM FITC peptide
# Description: as §1
# antisense TERRA = assay: FP assay, FITC labeled TRF2 peptide with antisense TERRA; format: binding; conditions: 10 nM FITC peptide
# Description: as §1
# antisense TeloDNA = assay: FP assay, FITC labeled TRF2 peptide with antisense TeloDNA; format: binding; conditions: 10 nM FITC peptide
# Description: as §1
# TeloDNA = assay: FP assay, FITC labeled TRF2 peptide with TeloDNA; format: binding; conditions: 10 nM FITC peptide
# Description: as §1
# [5] = system: TERRA (unlabelled) (RNA, G4) UUAGGGUUAGGGUUAGGGUUAGGG; assay: fluorescence polarization, displacement of TRF2 GAR peptide; conditions: 150 mM salt (KCl, NaCl or LiCl; which not stated); 20 mM HEPES pH 7.5, room temperature; FITC-TRF2 GAR peptide 10 nM; 5 μM oligo; dilutions from 50 μM compound
# TERRA [6] = assay: CD spectroscopy of TERRA mixed with compound; conditions: 1:1 molar ratio, 150 mM KCl buffer
# Description: All nucleic acids were dissolved in buffer containing 20 mM HEPES pH7.5, 150 mM salt (KCl or LiCl), 20% PEG8000 at the concentration of 10 μM for experiments. A J-815 spectrometer equipped with a PFD-425S Peltier cell holder was used to measure CD spectra at 4 °C between 200 and 340 nm to determine the secondary structure content of various oligo constructs. The molar ellipticity was calculated and the plot was made using Excel.
# LOX cells = assay: TIF assay (IF FISH, γH2AX or 53BP1 with telomere DNA) in LOX cells; format: cell-based, human; conditions: 2 μM, 3 days
# Description: Mei et al, 2020 TERRA Requires TRF2 GAR Domain […]
# (§2) Indirect immunofluorescence (IF) combined with fluorescence in situ hybridization (FISH) analysis for telomere dysfunction was performed as described 4 with some modifications. Briefly, cells grown on coverslips were fixed for 15 min in 2% paraformaldehyde/1x PBS at RT, followed by permeabilization for 10 min in 1x PBS/0.5% Triton X-100 at RT. After washing with 1x PBS, cells were incubated for 60 min in blocking solution (0.5% BSA, 0.2% fish gelatin, 0.1% Triton X-100, 1 mM EDTA in 1x PBS) before immuno-staining. Primary antibodies were prepared in blocking solution at following dilutions: anti-53BP1 (1:500, IHC-00001; Bethyl Laboratories) and γH2AX (1:2,000, A300-081A; Bethyl Laboratories). After IF, cells were fixed in 4% paraformaldehyde in 1x PBS for 10 min, washed in 1x PBS, dehydrated in ethanol series (70%, 95%, 100%), and air-dried. Coverslips were denatured for 5 min at 80-85° C in hybridization mix [70% formamide, 10 mM Tris-HCl, pH 7.2, and 0.5% blocking solution (Roche)] containing telomeric PNA-Cy3-(CCCTAA)3 probe, and hybridization was continued for 2 hrs at room temperature in the dark moisturized chambers. Coverslips were washed twice for 15 min each with 70% formamide, 10 mM Tris-HCl (pH 7.2), and 0.1% BSA, and followed by three washes for 5 min each with 0.15 M NaCl, 0.1 M Tris-HCl (pH 7.2), and 0.08% Tween-20. Nuclei were counterstained with 0.1 µg/ml DAPI in blocking solution and coverslips mounted with VectorShield (Vector Laboratories). RNA FISH was performed as previously described 1.
# Images were captured with a 100x lens on a Nikon E600 Upright microscope (Nikon […]
# Instruments, Inc., Melville, NY) with ImagePro Plus software (Media Cybernetics, Silver Spring, MD) for image processing. Cells with > 5 53BP1/γH2AX foci co-localizing with telomere DNA foci were scored as positive for TIF. The quantification was generated from at least three independent Immuno-FISH experiments. […]
# 0.1 μg/mL DAPI in 1x PBS and slides were mounted with VectorShield (Vector Laboratories).
# Images were taken with a 100x lens on a Nikon E600 Upright microscope (Nikon Instruments) using ImagePro Plus software (Media Cybernetics) for image processing. Statistical analysis was performed using two-tailed Student t Test.
# TERRA and TRF2 complex = assay: FP inhibition assay, TRF2 GAR binding to TERRA; conditions: FP
# Description: as §1
# [7] = system: TERRA antisense (5'-fluorescein) (RNA, single strand) CCCUAACCCUAACCCUAACCCUAA; assay: fluorescence polarization; conditions: 150 mM salt (KCl, NaCl or LiCl; which not stated); 20 mM HEPES pH 7.5, room temperature, tRNA competitor; dilutions from 50 μM compound
# TERRA in LOX cells = assay: TERRA levels by RNA dot blot and Northern blot in LOX cells; format: cell-based, human
# TeloDNA and TRF2 complex = assay: FP inhibition assay, TRF2 GAR binding to TeloDNA
# Description: as §1
# EBNA1 G4 RNA = assay: FP assay, compound binding to EBNA1 G4 RNA
# Description: as §1
# [8] = system: TeloDNA antisense (5'-fluorescein) (DNA, single strand) CCCTAACCCTAACCCTAACCCTAA; assay: fluorescence polarization; conditions: 150 mM salt (KCl, NaCl or LiCl; which not stated); 20 mM HEPES pH 7.5, room temperature, tRNA competitor; dilutions from 50 μM compound
# [9] = system: TRF2 binding to telomere DNA; assay: DNA ChIP assay of TRF2 binding to telomere DNA in LOX cells; format: cell-based, human; conditions: 2 μM, 2 days
# Description: The lysates were sonicated, cleared by centrifugation, and supernatants were diluted 10 fold into IP Buffer (0.01% SDS, 1.1% Triton X-100, 1.2mM EDTA, 16.7mM Tris pH 8.1, 167mM NaCl, protease inhibitors cocktail, 50U/ml SUPERase•in) for IP reaction with rabbit IgG (Santa Cruz Biotechnology) or rabbit polyclonal anti-TRF2 (Pocono Rabbit Farm) at 4 ° C overnight. Each immune complex was collected by Dynal A beads (Invitrogen), washed five times (1 ml wash, 10 mins each) in ChIP related wash buffer at 4 ° C, eluted by addition of 200µl Elution buffer (10mM Tris, pH 8.0, 5mM EDTA, 1% SDS, 50U/ml SUPERase.In) at 70 °C for 20 mins, and the elutes were placed at 70 °C for 2 hrs to reverse cross-linking. […]
# DNA ChIP assays was performed as described previously 3 with minor modifications. Briefly, 1 x 10^7 LOX cells treated with indicated chemicals (2 µM) for 48 hrs were subject to ChIP analysis and immunoprecipitated DNA was assayed by DNA dot-blot using 32P-labeled (TTAGGG)4 or Alu probe. […]
# [10] = system: TeloDNA (unlabelled) (DNA, G4) TTAGGGTTAGGGTTAGGGTTAGGG; assay: fluorescence polarization, displacement of TRF2 GAR peptide; conditions: 150 mM salt (KCl, NaCl or LiCl; which not stated); 20 mM HEPES pH 7.5, room temperature; FITC-TRF2 GAR peptide 10 nM; 5 μM oligo; dilutions from 50 μM compound
# [11] = system: telomere repeat DNA in LOX cells; assay: Telomere length analysis (PFGE, Southern blot) of LOX cells; format: cell-based, human; conditions: TLA
# Description: Genomic DNA was isolated from cells using a genomic DNA purification kit (Promega) and digested with AluI and MboI. Digested genomic DNA was purified by phenol/choloroform extraction and quantified using a Qubit 4 Fluorometer (Thermal Scientific). Equal amounts of digested DNA (5 μg) were separated by pulse-field gel electrophoresis (PFGE) performed with a 1% agarose gel at 6V/cm, switch times from 1 to 12s, 15 °C for 12h using CHEF-DRIII system (Bio-Rad). The DNA was transferred to GeneScreen Plus blotting membranes (Perkin-Elmer) and analyzed by Southern blot. The blots were hybridized with a 32P-labeled telomere repeat or […]
# Alu probe at 42 °C overnight, then washed twice for 5 min each with 0.2 M wash buffer (0.2 M Na2HPO4 pH 7.2, 1 mM EDTA, and 2% SDS) at room temperature and once for 10 min with 0.1 M wash buffer at 42°C. Relative telomere-repeat signals were determined by Typhoon 9410 Imager and ImageQuant TL software (GE Healthcare). Signal intensity represents the percentage decrease of average telomere signals relative to dox (-) or PP control. […]
# as §2, with “100,” for “Indirect immunofluorescence (IF) combined with fluorescence in situ hybridization (FISH) analysis for telomere dysfunction was performed as described 4 with some modifications. Briefly, cells grown on coverslips were fixed for 15 min in 2% paraformaldehyde/1x PBS at RT, followed by permeabilization for 10 min in 1x PBS/0.5% Triton X-100 at RT. After washing with 1x PBS, cells were incubated for 60 min in blocking solution (0.5% BSA, 0.2% fish gelatin, 0.1% Triton X-100,”
# Images were captured with a 100x lens on a Nikon E600 Upright microscope (Nikon
# [12] = 10 nM fluorescein-labeled probe, 3 independent experiments
# [13] = 150 mM KCl, NaCl or LiCl (salt not specified), 20 mM HEPES, tRNA competitor added, 10 nM probe, apparent
compound,measurement,setting,value
"COS(=O)(=O)[O-].Cc1cc2c3c([n+](C)c4ccc(F)cc4c3c1)-c1cc(F)ccc1N2C [RHPS4, acridinium methosulfate]",binding activity for G4 TeloDNA,G4 TeloDNA,only PDS bound
same,binding,[1],no
same,binding,[2],no
same,binding to TERRA,TERRA [3],only PDS bound
"AAAGAAASASSGAAAAGAHEPGLGGPAEAGAGEAA [Ala mutant, control peptide with each of the 10 arginine residues mutated to alanine]",peptide binding to TERRA,TERRA [4],no detectable binding
same,peptide binding to antisense TERRA,antisense TERRA,Neither TRF2 GAR nor the Ala mutant showed any detectable binding
same,peptide binding to antisense TeloDNA,antisense TeloDNA,Neither TRF2 GAR nor the Ala mutant showed any detectable binding
same,peptide binding to TeloDNA,TeloDNA,no detectable binding
"C=CC1=C(C)c2cc3[nH]c(cc4nc(cc5[nH]c(cc1n2)c(C)c5CCC(=O)O)C(CCC(=O)O)=C4C)c(C)c3C=C [PP, protoporphyrin IX]",binding,[5],no
same,binding activity for G4 TeloDNA,G4 TeloDNA,no binding activity
same,alteration of CD spectrum of TERRA at major peak (~260 nm),TERRA [6],not BRACO-19 or PP altered the CD spectrum
same,level of γH2AX or 53BP1 associated telomere dysfunction-induced foci (TIFs),LOX cells,equivalent to background
same,IC50 for TRF2 GAR-TERRA,TERRA and TRF2 complex,no measurable IC50
same,binding,[7],no
same,accumulation of TERRA as a shorter form,"TERRA in LOX cells; 2 μM, 3 days, Northern blot",not observed
same,binding,[1],no
same,IC50 for TRF2 GAR-TeloDNA,TeloDNA and TRF2 complex,no measurable IC50
same,binding to EBNA1 G4 RNA,EBNA1 G4 RNA,did not display any binding
same,binding,[2],no
same,binding to TERRA,TERRA [3],no measurable affinity
same,binding,[8],no
same,effect on TRF2 binding to telomere DNA,[9],"Neither NMM, PP, nor BRACO-19 had any significant effect"
same,binding,[10],no
"NCCOc1cc(C(=O)Nc2cc(OCCN)c3ccccc3n2)nc(C(=O)Nc2cc(OCCN)c3ccccc3n2)c1 [PDS, pyridostatin]",EC50,G4 TeloDNA; [12],50 nM
same,total TERRA levels relative to PP control,"TERRA in LOX cells; 2 μM, 3 days, RNA dot blot and Northern blot",also reduced TERRA levels
same,EC50,[1]; [13],50 nM
same,EC50,EBNA1 G4 RNA,199 nM
same,binding to EBNA1 G4 RNA,EBNA1 G4 RNA,high binding affinity
same,EC50,[2]; [13],660 nM
same,EC50,TERRA [3]; [12],660 nM
same,telomere repeat DNA signals,[11],to a lesser extent
"C[C@H]1c2cccc(O)c2C(=O)C2=C(O)[C@]3(O)C(=O)C(C(N)=O)=C(O)[C@@H](N(C)C)[C@@H]3[C@@H](O)[C@@H]21 [Dox, doxycycline]",effect of Dox treatment on TERRA,"TERRA in LOX cells; doxycycline 1 µg/ml, 2 days, RNA dot blot",no effect on TERRA
C[n+]1cc(NC(=O)c2ccc3ccc4ccc(C(=O)Nc5cc6ccccc6[n+](C)c5)nc4c3n2)cc2ccccc21 [Phen-DC3],binding activity for G4 TeloDNA,G4 TeloDNA,only PDS bound
same,binding,[1],no
same,binding,[2],no
same,binding to TERRA,TERRA [3],only PDS bound
